# Read-outs that look alike come from different tables or passages of the source. Marks after values point to notes of the source that are not given here.
# Columns and labels:
# A. baumannii = test: MIC, broth microdilution in CAMHB supplemented with human serum, read at 100% growth inhibition; assay type: cell-based, Acinetobacter baumannii; conditions: for MIC: read-out: MIC
# Procedure: MIC determinations were performed using the broth microdilution method and in line with CLSI guidelines M07 and M100 (refs. [37],[38]). Bacterial inocula were prepared by diluting a 0.5 McFarland suspension in CAMHB or lysogeny broth (LB) specifically for A. baylyi isolates. […] MIC values of all of the tested antibiotics were read as the lowest compound concentration inhibiting bacterial growth by naked eye or beyond which the OD600 ceased to decrease.
# Aqueous solubility = assay type: physicochemical; conditions: pH 1–9
structure (smiles),measurement,setting,value
CN1C(=O)[C@H](CCCCN)NC(=O)[C@H](CCCN)NCc2cccnc2Sc2cccc(-c3ccc(C(=O)O)cc3)c2CNC(=O)[C@@H]1Cc1c[nH]c2ccccc12 [zosurabalpin],MIC,"A. baumannii; Acinetobacter baumannii, isolate 1728884, 20% HS",0.5 µg/mL
same,MIC,"A. baumannii; Acinetobacter baumannii, isolate 1729042, 20% HS",2 µg/mL
same,MIC,"A. baumannii; Acinetobacter baumannii, isolate 1729043, 20% HS",1 µg/mL
same,MIC,"A. baumannii; Acinetobacter baumannii, isolate 1729044, 20% HS",1 µg/mL
same,MIC,"A. baumannii; Acinetobacter baumannii, isolate 1729049, 20% HS",2 µg/mL
same,MIC,"A. baumannii; Acinetobacter baumannii, isolate 1729050, 20% HS",2 µg/mL
same,MIC,"A. baumannii; Acinetobacter baumannii, isolate 1729052, 20% HS",1 µg/mL
same,MIC,"A. baumannii; Acinetobacter baumannii, isolate 1729102, 20% HS",4 µg/mL
same,MIC,"A. baumannii; Acinetobacter baumannii, isolate 1729123, 20% HS",0.5 µg/mL
same,MIC,"A. baumannii; Acinetobacter baumannii, isolate 1729351, 20% HS",0.5 µg/mL
same,MIC,"A. baumannii; Acinetobacter baumannii, isolate 1729352, 20% HS",0.25 µg/mL
same,MIC,"A. baumannii; Acinetobacter baumannii, isolate 1729353, 20% HS",0.25 µg/mL
same,MIC,"A. baumannii; Acinetobacter baumannii, isolate 1729358, 20% HS",0.25 µg/mL
same,MIC,"A. baumannii; Acinetobacter baumannii, isolate 1729362, 20% HS",1 µg/mL
same,MIC,"A. baumannii; Acinetobacter baumannii, isolate 1729379, 20% HS",1 µg/mL
same,MIC,"A. baumannii; Acinetobacter baumannii, isolate 1864609, 20% HS",0.06 µg/mL
same,MIC,"A. baumannii; Acinetobacter baumannii, isolate 1864833, 20% HS",0.5 µg/mL
same,MIC,"A. baumannii; Acinetobacter baumannii, isolate 1865057, 20% HS",0.25 µg/mL
same,MIC,"A. baumannii; Acinetobacter baumannii, isolate 1865083, 20% HS",0.5 µg/mL
same,MIC,"A. baumannii; Acinetobacter baumannii, isolate 1865084, 20% HS",0.5 µg/mL
same,MIC,"A. baumannii; Acinetobacter baumannii, isolate 1865085, 20% HS",0.5 µg/mL
same,MIC,"A. baumannii; Acinetobacter baumannii, isolate 1865086, 20% HS",0.5 µg/mL
same,MIC,"A. baumannii; Acinetobacter baumannii, isolate 1865266, 20% HS",1 µg/mL
same,MIC,"A. baumannii; Acinetobacter baumannii, isolate 1865269, 20% HS",0.25 µg/mL
same,MIC,"A. baumannii; Acinetobacter baumannii, isolate 1865273, 20% HS",0.06 µg/mL
same,MIC,"A. baumannii; Acinetobacter baumannii, isolate 1865274, 20% HS",0.25 µg/mL
same,MIC,"A. baumannii; Acinetobacter baumannii, isolate 1865386, 20% HS",0.125 µg/mL
same,MIC,"A. baumannii; Acinetobacter baumannii, isolate 1865387, 20% HS",0.125 µg/mL
same,MIC,"A. baumannii; Acinetobacter baumannii, isolate 1865494, 20% HS",0.06 µg/mL
same,MIC,"A. baumannii; Acinetobacter baumannii, isolate 1865714, 20% HS",0.25 µg/mL
same,MIC,"A. baumannii; Acinetobacter baumannii, isolate 1866281, 20% HS",0.125 µg/mL
same,MIC,"A. baumannii; Acinetobacter baumannii, isolate 1866282, 20% HS",0.06 µg/mL
same,MIC,"A. baumannii; Acinetobacter baumannii, isolate 1866283, 20% HS",0.03 µg/mL
same,MIC,"A. baumannii; Acinetobacter baumannii, isolate 1866370, 20% HS",0.25 µg/mL
same,MIC,"A. baumannii; Acinetobacter baumannii, isolate 1866376, 20% HS",0.25 µg/mL
same,MIC,"A. baumannii; Acinetobacter baumannii, isolate 1868315, 20% HS",0.5 µg/mL
same,MIC,"A. baumannii; Acinetobacter baumannii, isolate 1869068, 20% HS",1 µg/mL
same,MIC,"A. baumannii; Acinetobacter baumannii, isolate 1869084, 20% HS",4 µg/mL
same,MIC,"A. baumannii; Acinetobacter baumannii, isolate 1869085, 20% HS",1 µg/mL
same,MIC,"A. baumannii; Acinetobacter baumannii, isolate 1869086, 20% HS",1 µg/mL
same,MIC,"A. baumannii; Acinetobacter baumannii, isolate 1869087, 20% HS",1 µg/mL
same,MIC,"A. baumannii; Acinetobacter baumannii, isolate 1869088, 20% HS",0.5 µg/mL
same,MIC,"A. baumannii; Acinetobacter baumannii, isolate 1869089, 20% HS",0.25 µg/mL
same,MIC,"A. baumannii; Acinetobacter baumannii, isolate 1869090, 20% HS",0.25 µg/mL
same,MIC,"A. baumannii; Acinetobacter baumannii, isolate 1869091, 20% HS",0.25 µg/mL
same,MIC,"A. baumannii; Acinetobacter baumannii, isolate 1869093, 20% HS",0.25 µg/mL
same,MIC,"A. baumannii; Acinetobacter baumannii, isolate 1869173, 20% HS",0.25 µg/mL
same,MIC,"A. baumannii; Acinetobacter baumannii, isolate 1870044, 20% HS",0.03 µg/mL
same,MIC,"A. baumannii; Acinetobacter baumannii, isolate 1870131, 20% HS",1 µg/mL
same,MIC,"A. baumannii; Acinetobacter baumannii, isolate 1870152, 20% HS",0.25 µg/mL
same,MIC,"A. baumannii; Acinetobacter baumannii, isolate 1870171, 20% HS",0.5 µg/mL
same,MIC,"A. baumannii; Acinetobacter baumannii, isolate 1871948, 20% HS",1 µg/mL
same,MIC,"A. baumannii; Acinetobacter baumannii, isolate 1872001, 20% HS",0.25 µg/mL
same,MIC,"A. baumannii; Acinetobacter baumannii, isolate 1872360, 20% HS",4 µg/mL
same,MIC,"A. baumannii; Acinetobacter baumannii, isolate 1887389, 20% HS",0.06 µg/mL
same,MIC,"A. baumannii; Acinetobacter baumannii, isolate 1887397, 20% HS",0.06 µg/mL
same,MIC,"A. baumannii; Acinetobacter baumannii, isolate 1887497, 20% HS",0.06 µg/mL
same,MIC,"A. baumannii; Acinetobacter baumannii, isolate 1887498, 20% HS",0.06 µg/mL
same,MIC,"A. baumannii; Acinetobacter baumannii, isolate 1897312, 20% HS",0.03 µg/mL
same,MIC,"A. baumannii; Acinetobacter baumannii, isolate 1897314, 20% HS",0.25 µg/mL
same,MIC,"A. baumannii; Acinetobacter baumannii, isolate 1897317, 20% HS",0.25 µg/mL
same,MIC,"A. baumannii; Acinetobacter baumannii, isolate 1914727, 20% HS",0.5 µg/mL
same,MIC,"A. baumannii; Acinetobacter baumannii, isolate 1914733, 20% HS",0.06 µg/mL
same,MIC,"A. baumannii; Acinetobacter baumannii, isolate 1930837, 20% HS",0.06 µg/mL
same,MIC,"A. baumannii; Acinetobacter baumannii, isolate 1930840, 20% HS",0.125 µg/mL
same,MIC,"A. baumannii; Acinetobacter baumannii, mutations in adeRS",1 to 8 µg/mL
same,MIC90,"A. baumannii; Acinetobacter baumannii, 129 clinical isolates, CAMHB + 20% HS, n = 1",1 µg/mL
same,Fold MIC increase,A. baumannii; AdeR A91V vs parental,>4 - 32
same,Fold MIC increase,A. baumannii; AdeS D128E vs parental,2
same,Fold MIC increase,A. baumannii; AdeS G160C vs parental,4
same,Fold MIC increase,A. baumannii; AdeS G318S vs parental,8
same,Fold MIC increase,A. baumannii; AdeS L197F vs parental,4
same,Fold MIC increase,A. baumannii; AdeS R108S vs parental,4
same,Fold MIC increase,A. baumannii; AdeS R152K vs parental,4
same,Fold MIC increase,A. baumannii; AdeS T66S vs parental,4
same,Fold MIC increase,A. baumannii; LptF (G326_E327)del vs parental,64 - 128 ^a
same,Fold MIC increase,A. baumannii; LptF (I319_K320)N vs parental,>256
same,Fold MIC increase,A. baumannii; LptF (K320)del vs parental,>256
same,Fold MIC increase,A. baumannii; LptF (K320)dup vs parental,256
same,Fold MIC increase,A. baumannii; LptF (V314_L315)del vs parental,128
same,Fold MIC increase,A. baumannii; LptF A318E vs parental,32
same,Fold MIC increase,"A. baumannii; LptF E58G vs parental, CAMHB + 20% HS",8
same,Fold MIC increase,A. baumannii; LptF E58K vs parental,>256
same,Fold MIC increase,A. baumannii; LptF E249K vs parental,32 - 256 ^a
same,Fold MIC increase,A. baumannii; LptF I317L vs parental,32 - 64
same,Fold MIC increase,A. baumannii; LptF I317N vs parental,>256
same,Fold MIC increase,A. baumannii; LptF I317S vs parental,256
same,Fold MIC increase,A. baumannii; LptF I317T vs parental,32
same,Fold MIC increase,A. baumannii; LptF I323K vs parental,64 - 128 ^a
same,Fold MIC increase,A. baumannii; LptF I323R vs parental,4 - 256 ^a
same,Fold MIC increase,A. baumannii; LptF K320E vs parental,256
same,Fold MIC increase,A. baumannii; LptF K320N vs parental,64
same,Fold MIC increase,A. baumannii; LptF K320Q vs parental,32
same,Fold MIC increase,A. baumannii; LptF K320T vs parental,16
same,Fold MIC increase,A. baumannii; LptF L62H vs parental,64 - 256 ^a
same,Fold MIC increase,A. baumannii; LptF R322C vs parental,32 - 128 ^a
same,Fold MIC increase,A. baumannii; LptF R322G vs parental,8 - 16 ^a
same,Fold MIC increase,A. baumannii; LptF R322L vs parental,32 - 64 ^a
same,Fold MIC increase,A. baumannii; LptF R322S vs parental,16
same,Fold MIC increase,A. baumannii; LptF T121K vs parental,8
same,Fold MIC increase,A. baumannii; LptF W271R vs parental,4
same,Fold MIC increase,A. baumannii; LptF W271S vs parental,16
same,Fold MIC increase,A. baumannii; LptG G40D vs parental,8
same,Fold MIC increase,A. baumannii; LptG L36Q vs parental,32
same,Fold MIC increase,A. baumannii; LpxM IS66 vs parental,32
same,Fold MIC increase,A. baumannii; LpxM K285N vs parental,4
same,Fold MIC increase,A. baumannii; LpxM L44stop vs parental,32
same,Fold MIC increase,A. baumannii; LpxM W78stop vs parental,32
same,Fold MIC increase,A. baumannii; adeS ISAba1 vs parental,4 - 32 ^a
same,Fold MIC increase,A. baumannii; deletion of AGTGTGGAGTA 66nt upstream of adeR vs parental,8
same,Fold MIC increase,A. baumannii; lpxM ISAba1 vs parental,32 - 64 ^a
same,aqueous solubility,Aqueous solubility,> 100 mg/mL

# Source: publication PMC10794144, “A novel antibiotic class targeting the lipopolysaccharide transporter” (Nature, 2024)
